This is an account of results in PubChem BioAssay (NCI).

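A five-concentration, 48-hour dose response in 96-well plates underlies each endpoint, interpolated linearly between surrounding concentrations. GI50 marks 50% less growth. Definition used: TGI = concentration required for complete inhibition of growth.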

Some test systems named below: COLO 205 colon; HL-60(TB) leukemia; HOP-92 NSCLC; NCI-H460 lung; SN12C renal; IGROV1 ovarian; SF-268 CNS; NCI-H23 lung; OVCAR-3 ovarian.
What all share (experiment): NCI anticancer screen, dose series, 48 h

Consider `CN(C)C(CN)CC1=C(CC(CN)N(C)C)CCC1` (configuration not stated), for which the TGI in the experiment on COLO 205 colon, in the experiment with HL-60(TB) leukemia, with HOP-92 NSCLC, in the experiment on NCI-H460 lung, in the experiment with SN12C renal and in the experiment on IGROV1 ovarian was greater than 100 µM each time. The TGI with SF-268 CNS, in the experiment on NCI-H23 lung and in the experiment with OVCAR-3 ovarian was greater than 100 µM each time.
`COc1cc(/C=C/C(=O)O)ccc1C(=O)O/C=C/c1ccccc1`: the TGI with COLO 205 colon, in the experiment with HL-60(TB) leukemia, in the experiment on HOP-92 NSCLC, in the experiment on NCI-H460 lung, in the experiment with SN12C renal and in the experiment on IGROV1 ovarian was greater than 100 µM throughout. Moreover, the TGI in the experiment with SF-268 CNS, with NCI-H23 lung and in the experiment on OVCAR-3 ovarian was greater than 100 µM each time.
In the case of `O=C(CP(=O)(O)O)c1cccs1`, the TGI in the experiment on COLO 205 colon, with HL-60(TB) leukemia, with HOP-92 NSCLC, in the experiment with NCI-H460 lung, with SN12C renal and with IGROV1 ovarian was greater than 100 µM throughout. Moreover, the TGI in the experiment with SF-268 CNS, with NCI-H23 lung and in the experiment with OVCAR-3 ovarian was greater than 100 µM in each case.
Regarding `Oc1ccc(-c2nnc3sc(-c4ccc(F)cc4)nn23)cc1`, the GI50 with COLO 205 colon was 16.9 µM; in the experiment on HL-60(TB) leukemia, greater than 100 µM; in the experiment on HOP-92 NSCLC, 46.1 µM; with NCI-H460 lung, greater than 100 µM; in the experiment with SN12C renal it was 42.5 µM; with IGROV1 ovarian, 55.8 µM. Besides, the GI50 with SF-268 CNS is 23 µM; in the experiment on NCI-H23 lung, 27.8 µM; in the experiment with OVCAR-3 ovarian it was 18.6 µM. For the same compound, the TGI is 34.1 µM in the experiment on COLO 205 colon; greater than 100 µM with HL-60(TB) leukemia; greater than 100 µM with HOP-92 NSCLC; greater than 100 µM with NCI-H460 lung; greater than 100 µM with SN12C renal; greater than 100 µM in the experiment on IGROV1 ovarian. Further, the figures for the TGI in the experiment with SF-268 CNS, in the experiment with NCI-H23 lung and with OVCAR-3 ovarian were 62.6 µM, 84.9 µM and greater than 100 µM, respectively.
`Cc1nn(C(=O)Cc2ccccc2)c2c1C(c1ccccc1O)SC(N)=N2` (configuration not stated): the TGI with COLO 205 colon, in the experiment on HL-60(TB) leukemia, in the experiment on NCI-H460 lung, in the experiment on SN12C renal, in the experiment with IGROV1 ovarian and in the experiment on SF-268 CNS was greater than 100 µM throughout. The compound also gave a TGI in the experiment on NCI-H23 lung greater than 100 µM.
On to `CC(=O)N/N=C1/NN(C(C)=O)C2(S1)C(=O)Nc1ccc(Br)cc12` (configuration not stated), for which the TGI in the experiment on HL-60(TB) leukemia, with HOP-92 NSCLC, in the experiment on NCI-H460 lung, in the experiment with SN12C renal, with IGROV1 ovarian and in the experiment on SF-268 CNS was greater than 100 µM throughout. Also, the TGI in the experiment with NCI-H23 lung and in the experiment on OVCAR-3 ovarian was greater than 100 µM throughout.
In the case of `COc1cc(/C=C2\C(=O)N(C(=O)Cc3ccccc3)N=C2C)ccc1O`, the TGI with COLO 205 colon, in the experiment with HL-60(TB) leukemia, with SN12C renal, in the experiment with SF-268 CNS, with NCI-H23 lung and in the experiment on OVCAR-3 ovarian was greater than 100 µM throughout.
On to `COCOc1ccc(OC)cc1`, for which the TGI with COLO 205 colon, in the experiment on HL-60(TB) leukemia, with HOP-92 NSCLC, in the experiment on NCI-H460 lung, in the experiment on SN12C renal and with IGROV1 ovarian was greater than 100 µM in each case. Moreover, the TGI in the experiment on SF-268 CNS, with NCI-H23 lung and in the experiment on OVCAR-3 ovarian was greater than 100 µM throughout.
With `COc1cc2c(cc1OCCCCOc1cc(-c3ccc(F)cc3)nc(C)n1)N=C[C@@H]1CCCN1C2=O`, the TGI with COLO 205 colon was found to be 1.17 µM; in the experiment with HL-60(TB) leukemia it was 28.7 µM; in the experiment with HOP-92 NSCLC, 6.18 µM; with SN12C renal, 7.55 µM; in the experiment with IGROV1 ovarian it was 12.2 µM; with SF-268 CNS, 16.3 µM. Further, the TGI was 1.37 µM with NCI-H23 lung and 2.66 µM in the experiment with OVCAR-3 ovarian.
Regarding `CCN(CC)CCOC(NC(C)=O)(c1ccccc1)c1ccccc1`, the TGI with COLO 205 colon, in the experiment with HL-60(TB) leukemia, in the experiment on HOP-92 NSCLC, with NCI-H460 lung, with SN12C renal and in the experiment on IGROV1 ovarian was greater than 100 µM throughout. In addition, the TGI with SF-268 CNS and with NCI-H23 lung was greater than 100 µM each time.
With `COC(=O)c1csnn1`, the TGI with COLO 205 colon, with HL-60(TB) leukemia, in the experiment on NCI-H460 lung, in the experiment with SN12C renal, with IGROV1 ovarian and with SF-268 CNS was greater than 100 µM each time. For the same compound, the TGI with NCI-H23 lung and in the experiment with OVCAR-3 ovarian was greater than 100 µM in each case.
Take `CC(C)(C)C1=Cc2cc3cc(C(C)(C)C)[nH]c(=O)c3cc2S(=O)(=O)N1`: the TGI is 39.9 µM in the experiment on COLO 205 colon; 43.1 µM in the experiment on HL-60(TB) leukemia; 39.3 µM in the experiment with HOP-92 NSCLC; greater than 100 µM in the experiment with NCI-H460 lung; greater than 100 µM with SN12C renal; 95.1 µM in the experiment with SF-268 CNS. The TGI was 85.3 µM in the experiment with NCI-H23 lung and 59.3 µM in the experiment on OVCAR-3 ovarian.
